Legend:
[1] = test system: biopsy samples from patients with IBD; experiment: Cytokine profiles of patient biopsy cultures in response to treatment with various agents (Example 2); format: cell-based, human
Experimental: From each patient, intestinal mucosal biopsies were minced into several pieces and distributed in 8 wells of a 96-well plate in 250 μl of Dulbecco's Modified Eagle Medium (DMEM) supplemented with 10% FBS and antibiotic-antimycotic (Life Technologies, CA). Half of the cultures were treated with infliximab (REMICADE®; 0.5 mg/ml; Janssen Biotech, Inc, NJ) and the plate was incubated at 37° C. in a humidified chamber of 95% O2/5% CO2 for 18 hours. Culture supernatants were collected, filtered and stored at −80° C. […] Signal detection and analysis was performed by MAGPIX® (Luminex Corporation, TX).
[…] with 0.5 mg/ml infliximab (an anti-TNFα antibody; therapeutic agent), 100 μM tofacitinib (a Janus kinase (JAK) inhibitor) and an experimental drug (at 10 μM concentration) in accordance with the protocol described above. Following treatment, biopsy samples were obtained and analyzed for cytokine profiles using […].
Additional similar experiments were conducted for different patients using the same or different therapeutic agents, and the results are shown in FIG. 5D-5H.

[2] = test system: patients with moderate-to-severe CD; conditions: week 24 of intervention; cited from earlier work

C[C@@H]1CCN(C(=O)CC#N)C[C@@H]1N(C)c1ncnc2[nH]ccc12 [tofacitinib]
cytokines with levels significantly elevated ([1]; 100 μM, non-responder group (FIG. 5B)): IL-12p40, IL-12p70, IL-13, IL-17A, IL-2, IL-4, IL-5, and IL-7 | cytokines with attenuation in levels ([1]; 100 μM, non-responders (FIG. 5B)): MCP-1 and TNFα | cytokines with levels significantly attenuated ([1]; 100 μM, responders (FIG. 5B)): IL-6, IL-8, MCP-1, and TNFα | changes in cytokine profile ([1]; patient ID 13-394 (FIG. 5E)): three cytokine expression down-regulation | ex vivo response of patient ([1]; patient ID 13-394 (FIG. 5E)): ex vivo responder

Cn1cnc([N+](=O)[O-])c1Sc1ncnc2nc[nH]c12 [azathioprine]
Mucosal healing rates [2]: 16.5%

vedolizumab
changes in cytokine profile ([1]; patient ID 13-562 (FIG. 5F)): only one cytokine expression down-regulation and four cytokine expression up-regulation | ex vivo response of patient ([1]; patient ID 13-562 (FIG. 5F)): ex vivo non-responder
